Source: patent publication US20100310679A1, “NOVEL COMPOSITIONS FOR CONTROL OF MALICIOUS MARINE ANEMONES” (priority 2008, published 2010)

Test system: marine pest anemone
Experiment: Empirically determined effective concentration ranges of ingredients in agar-anemonescide-desensitizer preparation
Format: in vivo
Conditions: concentration of the ingredient in the agar-anemonescide-desensitizer preparation
Text: Table 1 also lists the empirically determined effective concentration ranges of the various ingredients. While it is believed that less than the minimal effective concentrations might impair the effectiveness of that ingredient, and more than effective concentration will not further improve the effectiveness, it is to be understood that the table is provided by way of enablement and is not to be construed as limiting the invention to the preferred ranges.

Structure (SMILES)	Empirically Determined Effective Concentration range (Min-Max)
O.O.[Ca+2].[Cl-].[Cl-] [CaCl2•2H2O]	10-500 g/l
O=S(=O)([O-])[O-].[Ca+2] [CaSO4, calcium sulphate]	5 to 150 g/L
O=S(=O)([O-])[O-].[Mg+2] [MgSO4, magnesium sulphate]	0.5 to 10 g/L
[Na+].[OH-] [NaOH, sodium hydroxide]	5 to 120 g/L

Test system: sea anemone Anthopleura midorii
Experiment: not given
Conditions: added to artificial food; cited from earlier work

Structure (SMILES)	effect on feeding motions
N[C@@H](CS)C(=O)O [Cysteine]	induced food ingestion
C[C@H](N)C(=O)O [alanine]	stimulated the retention of artificial food by tentacles
NC(=O)C[C@H](N)C(=O)O [asparagine]	stimulated the retention of artificial food by tentacles
NCC(=O)O [glycine]	stimulated the retention of artificial food by tentacles
N[C@@H](Cc1c[nH]cn1)C(=O)O [histidine]	stimulated the retention of artificial food by tentacles
O=C(O)[C@@H]1CCCN1 [proline]	evoked mouth opening
N[C@@H](CCC(=O)N[C@@H](CS)C(=O)NCC(=O)O)C(=O)O [reduced glutathione (GSH), reduced glutathione]	induced food ingestion
